Structures can show the parent of a compound that is named as a salt.
experiment: MIC of test compounds against various organisms; format: cell-based, S. aureus, S. pneumoniae, H. influenzae, E.faecalis; details: not given
Protocol: The MIC (μg/ml) of test compounds against various organisms was determined: S. aureus Oxford, S. aureus WCUH29, S. pneumoniae 1629, S. pneumoniae N1387, S. pneumoniae ERY 2, H. influenzae Q1, E.faecalis 1.

SMILES | MIC [µg/mL]
COc1ccc2nccc([C@@H](O)CN3CCC(NCc4ccc5c(c4)NC(=O)C(C)S5)CC3)c2c1 (mixture of isomers) [Example 21, 6-({1-[(R)-2-Hydroxy-2-(6-methoxy-quinolin-4-yl)-ethyl)-piperidin-4-ylamino}-methyl)-2-(R/S)-methyl-4H-benzo[1,4]thiazin-3-one dioxalate] | ≤ 2
COc1ccc2nccc([C@@H](O)CN3CCC(NCc4ccc5c(c4)NC(=O)CO5)CC3)c2c1 [Example 5, 6-({1-[(R)-2-Hydroxy-2-(6-methoxy-quinolin-4-yl)-ethyl]-piperidin-4-ylamino}-methyl)-4H-benzo[1,4]oxazin-3-one dioxalate] | ≤ 2
COc1ccc2nccc([C@@H](O)CN3CCC(NCc4ccc5c(c4)NC(=O)CS5)CC3)c2n1 [Example 16, 6-({1-[(R)-2-Hydroxy-2-(6-methoxy-[1,5]naphthyridin-4-yl)-ethyl]-piperidin-4-ylamino}-methyl)-4H-benzo[1,4]thiazin-3-one dioxalate] | ≤ 0.125
COc1ccc2nccc([C@@H](O)CN3CCC(NS(=O)(=O)c4ccc5c(c4)NC(=O)CCS5)CC3)c2n1 [Example 17, 4-Oxo-2,3,4,5-tetrahydro-benzo[b][1,4]thiazepine-7-sulfonic acid {1-[(R)-2-hydroxy-2-(6-methoxy-[1,5]naphthyridin-4-yl)-ethyl]-piperidin-4-yl}-amide oxalate] | ≤ 2
COc1ccc2nccc([C@@H](O)CN3CCC(NCc4ccc5c(n4)OCCO5)CC3)c2c1 [Example 19, (R)-2-{4-[(2,3-Dihydro-[1,4]dioxino[2,3-b]pyridin-6-ylmethyl)-amino]-piperidin-1-yl}-1-(6-methoxy-quinolin-4-yl)-ethanol dioxalate] | ≤ 0.125

same assay, conditions: against one or more of S. aureus Oxford, S. aureus WCUH29, S. pneumoniae 1629, S. pneumoniae N1387, S. pneumoniae ERY 2, H. influenzae Q1, E.faecalis 1 (gram positive and gram negative bacteria); read-out: MIC

MIC [µg/mL] | SMILES
≤ 0.125 | COc1ccc2nccc([C@@H](O)CN3CCC(NCc4cc5c(cc4[N+](=O)[O-])OCO5)CC3)c2c1.O=C(O)C(=O)O.O=C(O)C(=O)O [Example 18, (R)-1-(6-Methoxy-quinolin-4-yl)-2-{4-[(6-nitro-benzo[1,3]dioxol-5-ylmethyl)-amino]-piperidin-1-yl}-ethanol dioxalate]
≤ 2 | COc1ccc2nccc([C@@H](O)CN3CCC(NCc4cnc5c(c4)NC(=O)CS5)CC3)c2c1 [Example 20, 7-({1-[(R)-2-Hydroxy-2-(6-methoxy-quinolin-4-yl)-ethyl]-piperidin-4-ylamino}-methyl)-1-H-pyrido[2,3-b][1,4]thiazin-2-one dioxalate]

Reference: patent US7205408B2, “Quinolines and nitrogenated derivative thereof substituted in 4-position by a piperidine-containing moiety and their use as antibacterial agents” (priority 1920, dated 2007)
